Results as given in ChEMBL document CHEMBL4376854, “Investigation of the Adrenergic and Opioid Binding Affinities, Metabolic Stability, Plasma Protein Binding Properties, and Functional Effects of Selected Indole-Based Kratom Alkaloids” (J Med Chem, 2020).
Activity calls are given as the source filed them. No cut-off for these calls is given here.

Legend:
[1] = biological target: T1, Alpha-2C adrenergic receptor (Homo sapiens, UniProt P18825); experiment: biochemical
T1 sequence (P18825 whole entry): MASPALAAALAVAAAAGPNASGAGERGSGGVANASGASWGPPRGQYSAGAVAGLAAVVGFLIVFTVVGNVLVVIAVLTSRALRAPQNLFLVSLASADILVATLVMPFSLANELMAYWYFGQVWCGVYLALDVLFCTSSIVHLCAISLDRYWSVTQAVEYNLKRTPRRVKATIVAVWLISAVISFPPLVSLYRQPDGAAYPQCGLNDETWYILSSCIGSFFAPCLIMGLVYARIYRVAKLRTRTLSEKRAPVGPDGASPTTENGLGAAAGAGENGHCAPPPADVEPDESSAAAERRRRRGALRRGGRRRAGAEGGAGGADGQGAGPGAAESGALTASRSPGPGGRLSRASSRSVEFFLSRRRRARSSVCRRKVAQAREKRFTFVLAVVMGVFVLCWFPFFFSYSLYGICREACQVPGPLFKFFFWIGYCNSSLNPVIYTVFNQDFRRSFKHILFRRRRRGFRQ

Mu-type opioid receptor = Mu-type opioid receptor (Homo sapiens, UniProt P35372); conditions: HEK293, 100 nM
Mu-type opioid receptor, sequence (P35372 whole entry): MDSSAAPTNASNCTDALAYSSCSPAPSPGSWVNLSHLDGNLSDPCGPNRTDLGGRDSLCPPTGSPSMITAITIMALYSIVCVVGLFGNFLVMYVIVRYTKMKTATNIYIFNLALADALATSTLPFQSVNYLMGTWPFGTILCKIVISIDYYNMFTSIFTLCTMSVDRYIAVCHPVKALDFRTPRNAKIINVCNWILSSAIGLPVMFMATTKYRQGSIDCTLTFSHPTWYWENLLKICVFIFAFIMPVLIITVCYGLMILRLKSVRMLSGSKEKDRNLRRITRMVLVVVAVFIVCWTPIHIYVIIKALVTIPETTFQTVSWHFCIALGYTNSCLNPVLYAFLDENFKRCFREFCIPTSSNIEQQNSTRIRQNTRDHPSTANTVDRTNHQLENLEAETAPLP

[2] = biological target: T2, Alpha-1A adrenergic receptor (Homo sapiens) (UniProt P35348); experiment: Partial agonist activity at human recombinant adrenergic alpha-1A receptor expressed in CHO cells assessed as stimulation of intracellular calcium levels incubated at room temperature by fluorimetry; type: functional, cell-based
T2 sequence (whole entry): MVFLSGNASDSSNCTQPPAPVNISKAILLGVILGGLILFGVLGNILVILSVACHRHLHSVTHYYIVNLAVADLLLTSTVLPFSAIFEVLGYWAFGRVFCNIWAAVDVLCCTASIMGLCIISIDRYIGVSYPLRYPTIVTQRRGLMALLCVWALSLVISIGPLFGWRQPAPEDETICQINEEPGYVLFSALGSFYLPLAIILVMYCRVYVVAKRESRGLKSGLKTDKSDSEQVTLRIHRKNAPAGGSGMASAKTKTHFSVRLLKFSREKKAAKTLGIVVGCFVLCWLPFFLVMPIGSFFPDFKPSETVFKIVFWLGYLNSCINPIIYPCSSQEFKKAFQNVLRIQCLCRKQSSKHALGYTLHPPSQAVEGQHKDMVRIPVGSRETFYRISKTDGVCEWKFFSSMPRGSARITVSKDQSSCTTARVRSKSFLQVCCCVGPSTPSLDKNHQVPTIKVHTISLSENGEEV

[3] = biological target: T3, Alpha-1B adrenergic receptor (Homo sapiens, UniProt P35368); experiment: Displacement of [3H]prazosin from human recombinant adrenergic alpha-1B receptor expressed in CHO cell membranes incubated for 60 mins
T3 sequence (P35368 whole entry): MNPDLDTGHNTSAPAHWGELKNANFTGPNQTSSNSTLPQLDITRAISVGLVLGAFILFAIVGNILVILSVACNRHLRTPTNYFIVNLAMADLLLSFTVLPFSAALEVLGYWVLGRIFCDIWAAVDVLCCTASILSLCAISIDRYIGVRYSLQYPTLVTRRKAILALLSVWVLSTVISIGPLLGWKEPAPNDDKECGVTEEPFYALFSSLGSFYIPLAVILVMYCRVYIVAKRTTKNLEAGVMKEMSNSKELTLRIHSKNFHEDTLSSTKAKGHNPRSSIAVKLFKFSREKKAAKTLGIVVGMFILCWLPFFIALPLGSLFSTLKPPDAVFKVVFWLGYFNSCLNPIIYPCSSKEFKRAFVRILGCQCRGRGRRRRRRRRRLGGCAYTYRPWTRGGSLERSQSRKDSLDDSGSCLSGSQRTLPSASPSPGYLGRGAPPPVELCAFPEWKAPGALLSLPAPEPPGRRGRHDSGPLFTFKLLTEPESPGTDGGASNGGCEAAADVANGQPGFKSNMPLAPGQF

[4] = biological target: T4, Alpha-2A adrenergic receptor (Homo sapiens, UniProt P08913); experiment: biochemical
T4 sequence (P08913 whole entry): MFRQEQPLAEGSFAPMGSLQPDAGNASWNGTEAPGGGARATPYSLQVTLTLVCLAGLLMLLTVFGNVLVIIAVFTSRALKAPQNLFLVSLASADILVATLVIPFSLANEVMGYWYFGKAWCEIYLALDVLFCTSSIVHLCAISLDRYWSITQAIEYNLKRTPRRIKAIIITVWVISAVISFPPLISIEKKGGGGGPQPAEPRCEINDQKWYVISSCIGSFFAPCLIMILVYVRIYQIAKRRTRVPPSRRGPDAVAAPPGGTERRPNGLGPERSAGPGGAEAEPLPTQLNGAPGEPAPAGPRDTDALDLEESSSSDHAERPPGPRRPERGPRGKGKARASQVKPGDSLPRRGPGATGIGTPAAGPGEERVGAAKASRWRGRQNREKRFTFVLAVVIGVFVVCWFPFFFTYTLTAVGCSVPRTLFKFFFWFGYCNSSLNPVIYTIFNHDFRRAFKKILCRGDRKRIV

[5] = biological target: T5, Alpha-2C adrenergic receptor (Homo sapiens) (UniProt P18825); experiment: Competitive antagonist activity at human recombinant adrenergic alpha-2C receptor expressed in CHO cells assessed as inhibition of epinephrine-induced intracellular calcium levels incubated at room temperature by fluorimetry; type: functional, cell-based
T5 sequence (whole entry): T1 sequence (P18825 whole entry)

[6] = biological target: T6, Alpha-1B adrenergic receptor (Homo sapiens) (UniProt P35368); conditions: CHO, 100 nM
T6 sequence (whole entry): T3 sequence (P35368 whole entry)

Compound	Ki [1] [µM]	inhibition (Mu-type opioid receptor) [%]	Activity [2]	Ki [3] [µM]	Ki [4] [µM]	inhibition [5]	inhibition [6] [%]
CC[C@@H]1CN2CCc3c([nH]c4cccc(OC)c34)[C@@H]2C[C@@H]1/C(=C\OC)C(=O)OC	2.32	29	Active	4.77	4.72	Active	
CC[C@@H]1CN2CCc3c([nH]c4cccc(OC)c34)[C@H]2C[C@@H]1/C(=C\OC)C(=O)OC							25.2
